From patent publication US8354414B2, “Substituted bicyclic pyrimidines” (Cephalon, Inc, priority 2006, dated 2013)
Where two headings read alike, the source gives them in different places.

Columns and labels:
CDK5/GST-p25 = molecular target: T1, CDK5/GST-p25 (Homo sapiens, UniProt Q00535); assay: Inhibition of CDK5/GST-p25 kinase activity (ELISA with time-resolved fluorescence readout); type: biochemical
T1 construct: The final construct, encoding for full-length human CDK5; made in house; host or cells: Sf21 insect cells (baculovirus co-infection)
Method in brief: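 Sf21-coexpressed full-length human CDK5 with GST-p25 (p35 aa 108-307), glutathione-purified, at 2 ng/ml was reacted for 20 min at 37 °C on plate-coated GST-Rb(773-928). Buffer was 20 mM HEPES pH 7.2, 10 µM ATP, 10 mM MgCl2 and 2.5% DMSO. Phospho-Rb Ser-780 was detected by Eu-labelled antibody TRF, and IC50 curves were fitted.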

His6-GSK-3β = molecular target: T2, His6-GSK-3β (Homo sapiens, UniProt P49841); assay: Inhibition of His6-GSK-3β kinase activity (ELISA-based format, time-resolved fluorescence readout); type: biochemical; details: read-out: GSK3β IC50
T2 construct: made in house; host or cells: Sf21 insect cells (baculovirus)
Method in brief: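 N-terminal His6-tagged full-length human GSK-3β (aa 2-419) expressed in Sf21 cells, 200 ng/ml, phosphorylating plate-coated GST-Rb with 20 μM ATP in pH 7.2 HEPES buffer, 30 min at 37° C. Phospho-Rb (Ser-780) detected by antibody plus Eu-labelled secondary, time-resolved fluorescence; IC50 from curves.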

T2 sequence (P49841 2-419): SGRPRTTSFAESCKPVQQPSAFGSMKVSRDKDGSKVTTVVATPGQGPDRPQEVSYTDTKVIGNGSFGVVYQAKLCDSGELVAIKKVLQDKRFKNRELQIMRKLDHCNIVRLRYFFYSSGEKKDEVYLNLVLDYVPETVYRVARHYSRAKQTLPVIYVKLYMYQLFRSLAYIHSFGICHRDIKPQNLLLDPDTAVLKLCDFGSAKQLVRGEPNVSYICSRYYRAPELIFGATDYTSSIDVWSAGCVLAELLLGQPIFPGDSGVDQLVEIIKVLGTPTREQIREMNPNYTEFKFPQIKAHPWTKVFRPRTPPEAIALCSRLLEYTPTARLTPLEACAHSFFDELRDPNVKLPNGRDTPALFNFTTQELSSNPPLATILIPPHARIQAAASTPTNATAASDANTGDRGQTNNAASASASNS
T1 sequence (Q00535 whole entry): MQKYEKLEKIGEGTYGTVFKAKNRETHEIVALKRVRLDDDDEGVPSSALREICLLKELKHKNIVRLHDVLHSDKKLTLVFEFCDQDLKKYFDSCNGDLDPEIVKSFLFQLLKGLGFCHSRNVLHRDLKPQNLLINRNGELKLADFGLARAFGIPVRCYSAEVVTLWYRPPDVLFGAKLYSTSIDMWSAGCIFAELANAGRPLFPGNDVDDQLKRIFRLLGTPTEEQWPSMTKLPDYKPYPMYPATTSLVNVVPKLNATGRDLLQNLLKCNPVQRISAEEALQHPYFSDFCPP
T1 sequence (Q15078 108-307 partner limits assumed): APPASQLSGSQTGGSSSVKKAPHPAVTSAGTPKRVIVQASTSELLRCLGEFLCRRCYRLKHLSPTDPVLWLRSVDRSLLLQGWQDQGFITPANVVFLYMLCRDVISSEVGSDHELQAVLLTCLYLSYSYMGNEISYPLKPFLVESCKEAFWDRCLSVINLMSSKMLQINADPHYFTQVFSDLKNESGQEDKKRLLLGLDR

Compound	IC50 (CDK5/GST-p25; class symbols) [nM]	IC50 (His6-GSK-3β; numeric bounds) [nM]	melting point	IC50 (His6-GSK-3β; class symbols) [nM]	inhibition at 10 µM (CDK5/GST-p25) [%]	IC50 (CDK5/GST-p25; numeric bounds) [nM]
CCCn1cc2c(C3C(=O)Nc4ccc(S(=O)(=O)N(C)C)cc43)nc(Cl)nc2n1 (stereo not drawn) [Example 204, 3-(6-Chloro-2-propyl-2H-pyrazolo [3,4-d]pyrimidin-4-yl)-2-oxo-2,3-dihydro-1H-indole-5-sulfonic acid dimethylamide]	300 to 3000	> 3000	> 300 °C	–	–	–
CC(C)Cn1cc2c(C3C(=O)Nc4ccc(Br)cc43)nc(NCCCN(C)C)nc2n1 (stereo not drawn) [Example 269, 5-Bromo-3-[6-(3-dimethylamino-propylamino)-2-isobutyl-2H-pyrazolo [3,4-d]pyrimidin-4-yl]-1,3-dihydro-indol-2-one]	< 300	–	250.5 to 254 °C	< 300	–	–
O=C1Nc2cc(F)ccc2C1c1ncnc2c1cnn2C1CCCC1 (stereo not drawn) [Example 66, 3-(1-Cyclopentyl-1H-pyrazolo[3,4-d]pyrimidin-4-yl)-6-fluoro-1,3-dihydro-indol-2-one]	> 10000	> 3000	230 to 233 °C	–	–	–
CCNc1nc(C2C(=O)Nc3ccc(C#N)cc32)c2cn(C3CCCC3)nc2n1 (stereo not drawn) [Example 166, 3-(2-cyclopentyl-6-ethylamino-2H-pyrazolo[3,4-d]pyrimidin-4-yl)-2-oxo-2,3-dihydro-1H-indole-5-carbonitrile]	–	–	373 °C (dec.)	< 300	41	–
COCCNc1nc(C2C(=O)Nc3ccc(Br)cc32)c2cn(CCOC)nc2n1 (stereo not drawn) [Example 235, 5-Bromo-3-[2-(2-methoxy-ethyl)-6-(2-methoxy-ethylamino)-2H-pyrazolo [3,4-d]pyrimidin-4-yl]-1,3-dihydro-indol-2-one]	< 300	–	> 300 °C	< 300	–	–
CC(C)CNc1nc(C2C(=O)Nc3ccc(Cl)cc32)c2cn(C3CCCC3)nc2n1 (stereo not drawn) [Example 280, 5-Chloro-3-(2-cyclopentyl-6-isobutylamino-2H-pyrazolo[3,4-d]pyrimidin-4-yl)-1,3-dihydro-indol-2-one]	> 10000	–	282 to 286 °C	< 300	–	–
CC(=O)NCCNc1nc(C2C(=O)Nc3ccccc32)c2cn(C3CCCC3)nc2n1 (stereo not drawn) [Example 158, 3-(2-cyclopentyl-6-(2-acetylamino-ethylamino)-2H-pyrazolo[3,4-d]pyrimidin-4-yl)-1,3-dihydro-indol-2-one]	–	–	238 to 240 °C	300 to 3000	–	> 3000
O=C1Nc2ccc(C(F)(F)F)cc2C1c1ncnc2c1cnn2C1CCCC1 (stereo not drawn) [Example 56, 3-(1-Cyclopentyl-1H-pyrazolo [3,4-d]pyrimidine-4-yl)-5-trifluoromethyl-1,3-dihydro-indol-2-one]	> 10000	–	> 300 °C	> 10000	–	–
O=C1Nc2ccc(Cl)cc2C1c1ncnc2c1cnn2C1CCCC1 (stereo not drawn) [Example 58, 5-Chloro-3-(1-cyclopentyl-1H-pyrazolo[3,4-d]pyrimidin-4-yl)-1,3-dihydro-indol-2-one]	> 10000	> 3000	304 to 306 °C	–	–	–
C[C@H](O)CNc1nc(C2C(=O)Nc3ccc(Br)cc32)c2cn(C)nc2n1 (stereo partly drawn) [Example 304, 5-Bromo-3-[6-(2-(S)-hydroxypropylamino)-2-methyl-2H-pyrazolo [3,4-d]pyrimidin-4-yl]-1,3-dihydro-indol-2-one]	< 300	–	338 to 340 °C	< 300	–	–
CN(C)CCCNc1nc(C2C(=O)Nc3ccc(Br)cc32)c2cn(C)nc2n1 (stereo not drawn) [Example 307, 5-Bromo-3-[6-(3-dimethylamino-propylamino)-2-methyl-2H-pyrazolo[3,4-d]pyrimidin-4-yl]-1,3-dihydro-indol-2-one]	300 to 3000	–	310 to 312 °C (dec.)	300 to 3000	–	–
CCCn1ncc2c(C3C(=O)Nc4ccc(C#N)cc43)ncnc21 (stereo not drawn) [Example 93, 3-(1-propyl-1H-pyrazolo[3,4-d]pyrimidin-4-yl)-2-oxo-2,3-dihydro-1H-indole-5-carbonitrile]	> 10000	–	> 300 °C	> 10000	–	–
CC(C)Cn1cc2c(C3C(=O)Nc4ccc(Br)cc43)nc(NCCN(C)C)nc2n1 (stereo not drawn) [Example 268, 5-Bromo-3-[6-(2-dimethylamino-ethylamino)-2-isobutyl-2H-pyrazolo[3,4-d]pyrimidin-4-yl]-1,3-dihydro-indol-2-one]	< 300	–	261 to 264.5 °C	< 300	–	–
CCCn1cc2c(C3C(=O)Nc4ccc(C#N)cc43)ncnc2n1 (stereo not drawn) [Example 96, 3-(2-propyl-1H-pyrazolo[3,4-d]pyrimidin-4-yl)-2-oxo-2,3-dihydro-1H-indole-5-carbonitrile]	< 300	–	> 300 °C	< 300	–	–
N#Cc1ccc2c(c1)C(c1nc(OCCc3cccnc3)nc3nn(C4CCCC4)cc13)C(=O)N2 (stereo not drawn) [Example 164, 3-[2-cyclopentyl-6-(2-pyridin-3-yl-ethoxy)-2H-pyrazolo [3,4-d]pyrimidin-4-yl]-2-oxo-2,3-dihydro-1H-indole-5-carbonitrile]	> 10000	–	302 to 304 °C	< 300	–	–
O=C1Nc2ccccc2C1c1ncnc2c1cnn2C1CCCC1 (stereo not drawn) [Example 62, 3-(1Cyclopentyl-1H-pyrazolo[3,4-d]pyrimidin-4-yl)-1,3-dihydro-indol-2-one]	> 10000	> 3000	228 to 231 °C	–	–	–
CC(C)Cn1cc2c(C3C(=O)Nc4ccc(Cl)cc43)nc(Cl)nc2n1 (stereo not drawn) [Example 261, 5-Chloro-3-(6-chloro-2-isobutyl-2H-pyrazolo[3,4-d]pyrimidin-4-yl)-1,3-dihydro-indol-2-one]	> 10000	> 3000	284 °C (dec.)	–	–	–
CN(C)CCCNc1nc(C2C(=O)Nc3ccc(Br)cc32)c2cn(C3CCCC3)nc2n1 (stereo not drawn) [Example 371, 5-Bromo-3-[2-cyclopentyl-6-(3-dimethylamino-propylamino)-2H-pyrazolo [3,4-d]pyrimidin-4-yl]-1,3-dihydro-indol-2-one]	–	–	198 to 200 °C	< 300	–	> 3000
CCCn1cc2c(C3C(=O)Nc4ccc(Br)cc43)nc(NCCCN)nc2n1 (stereo not drawn) [Example 199, 3-[6-(3-Amino-propylamino)-2-propyl-2H-pyrazolo [3,4-d]pyrimidin-4-yl]-5-bromo-1,3-dihydro-indol-2-one]	< 300	–	> 300 °C	< 300	–	–
O=C1Nc2ccc(Br)cc2C1c1ncnc2c1cnn2C1CCCCC1 (stereo not drawn) [Example 75, 5-Bromo-3-(1-Cyclohexyl-1H-pyrazolo[3,4-d]pyrimidin-4-yl)-1,3-dihydro-indol-2-one]	> 10000	–	305 to 308 °C	> 10000	–	–
CCCCCn1cc2c(C3C(=O)Nc4ccc(C(F)(F)F)cc43)nc(NCCN)nc2n1 (stereo not drawn) [Example 288, 3-[6-(2-Amino-ethylamino)-2-pentyl-2H-pyrazolo [3,4-d]pyrimidin-4-yl]-5-trifluoromethyl-1,3-dihydro-indol-2-one]	300 to 3000	–	192 °C (dec.)	< 300	–	–
C=CCNc1nc(C2C(=O)Nc3ccccc32)c2cn(C3CCCC3)nc2n1 (stereo not drawn) [Example 243, 3-(6-Allylamino-2-cyclopentyl-2H-pyrazolo[3,4-d]pyrimidin-4-yl)-1,3-dihydro-indol-2-one]	–	> 1000	> 300 °C	–	63	–
CCCn1cc2c(C3C(=O)Nc4ccc(Br)cc43)nc(NCc3ccncc3)nc2n1 (stereo not drawn) [Example 190, 5-Bromo-3-{2-propyl-6-[(pyridine-4-ylmethyl)-amino]-2H-pyrazolo[3,4-d]pyrimidin-4-yl}-1,3-dihydro-indol-2-one]	< 300	–	> 300 °C	< 300	–	–
CCCCCn1cc2c(C3C(=O)Nc4ccc(C#N)cc43)nc(NC(C)C)nc2n1 (stereo not drawn) [Example 295, 3-(6-Isopropylamino-2-pentyl-2H-pyrazolo[3,4-d]pyrimidin-4-yl)-2-oxo-2,3-dihydro-1H-indole-5-carbonitrile]	< 300	–	199 °C (dec.)	< 300	–	–
CC(C)Cn1cc2c(C3C(=O)Nc4ccc(Br)cc43)nc(NCCCN3CCOCC3)nc2n1 (stereo not drawn) [Example 265, 5-Bromo-3-[2-isobutyl-6-(3-morpholin-4-yl-propylamino)-2H-pyrazolo [3,4-d]pyrimidin-4-yl]-1,3-dihydro-indol-2-one]	< 300	–	271 to 274 °C	< 300	–	–
CC(C)CNc1nc(C2C(=O)Nc3ccccc32)c2cn(C3CCCC3)nc2n1 (stereo not drawn) [Example 244, 3-(2-Cyclopentyl-6-isobutylamino-2H-pyrazolo[3,4-d]pyrimidin-4-yl)-1,3-dihydro-indol-2-one]	> 10000	> 1000	280 to 282 °C	–	–	–
C=CCNc1nc(C2C(=O)Nc3ccc(C#N)cc32)c2cn(C3CCCC3)nc2n1 (stereo not drawn) [Example 149, 3-(6-Allylamino-2-cyclopentyl-2H-pyrazolo[3,4-d]pyrimidin-4-yl)-2-oxo-2,3-dihydro-1H-indole-5-carbonitrile]	< 300	–	> 300 °C	< 300	–	–
COCCNc1nc(C2C(=O)Nc3ccc(Br)cc32)c2cn(CC(C)C)nc2n1 (stereo not drawn) [Example 263, 5-Bromo-3-[2-isobutyl-6-(2-methoxy-ethylamino)-2H-pyrazolo[3,4-d]pyrimidin-4-yl]-1,3-dihydro-indol-2-one]	< 300	–	294 to 296.8 °C	< 300	–	–
